Data published in patent US10351586B2, “Cytidine derivative dimers and applications thereof” (CHANGZHOU FANGYUAN PHARMACEUTICAL CO., LTD, priority 2014, dated 2019).
Marks after values point to notes of the source that are not given here.

Experiments:
[1] = test system: HCT-116 human colon cancer xenografts; assay: Tumor growth inhibition of HCT-116 human colon cancer xenografts in nude mice; type: in vivo, Balb/c nude mice; details: for Relative tumor proliferation rate (T/C %) / Relative tumor volume (RTV) / Tumor growth inhibition rate (TGI %) / Tumor volume of HCT-116 human colon cancer xenografts: single IP injection (QD×1), D1 and D2 400 mg/kg, D3 350 mg/kg, D4 300 mg/kg; for Tumor volume of HCT-116 human colon cancer xenografts: Mean±SEM
Method in brief: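 HCT-116 cells grown in F-12 with 10% FBS, inoculated into nude mice at ~3×10^7 cells/mL. Tumour diameter measured three times weekly, volume as V=3/4π(D/2)^3; activity given as TGI (%) versus control and T/C (%) from relative tumour volume Vt/V0.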

[2] = Body weight / toxicity of a single intraperitoneal injection in HCT-116 colon tumor-bearing nude mice; details: D3 350 mg/kg, D4 300 mg/kg; for Average rate of weight change of the animals / Average weight of the animals: single IP injection (QD×1), D1 and D2 400 mg/kg; for Average weight of the animals: Mean±SEM
Experimental: Corresponding test substance was weighed and put into a 5 mL glass tube. The test substance was dissolved in ethanol under the stirring by a 5 mm magnetic stirrer. After a complete dissolution, Cremophor EL was added with continuous stirring. Immediately prior to the user of the test substance, the labeled amount of physiological saline was added and stirred.
Animal experiments were performed. The animals were female Balb/c nude mice at specific pathogen free (SPF) level and were supplied from Shanghai Sippr/BK Lab Animal Ltd. (Shanghai, China). […] These animals were at the age of about 7 weeks to about 9 weeks at the beginning of the experiments and had the weight of about 18 grams to about 22 grams at the beginning of the experiment. The animals had acclimatization duration of about 5 days to about 7 days. Animals were numbered using their tail number. The animal room was maintained at about 23±2° C., 40%-70% humidity, with alternating light and dark every 12 hours.
4.2 Animal inoculation and grouping were performed. Under aseptic conditions, each nude mice was injected with 0.1 mL cell suspension into the right hind leg subcutaneously (3×10^6 cell/mouse). When the size of the tumor grew to have a volume of about 60-150 mm^3, nude mice with a similar tumor size and a desirable shape (e.g., with substantially same shape such as a substantially spherical shape, without having irregular shapes or multiple tumors grouped together) were selected and grouped. In the experiment, there were six mice in each group.
The mice in control group were injected with a mixed solution including ethanol, Cremophor EL and normal saline at a ratio of 5:5:90.
The mice were weighed 3 times every week.
4.4 Clinical symptoms were provided. All clinical symptoms of each animal were recorded at the beginning of the experiments and during the experiments. The observation was performed at the same time every day.
After administration of the test substance, when the weight reduction was >20%, when the animal was dying, or when the tumor volume exceeds about 2800 mm^3, the animal were euthanized by applying CO2. The tumor was separated and weighed, an autopsy was performed, and visual inspection was conducted and recorded on whether there were pathological changes in the organs.

[3] = D1 400 mg/kg Day 7, D2 400 mg/kg Day 9, D3 350 mg/kg Day 11, D4 300 mg/kg Day 11, single IP

SMILES: O=C(CCCC(=O)OC[C@H]1O[C@@H](n2ccc(NC(=O)OCc3ccccc3)nc2=O)C(F)(F)[C@@H]1O)OC[C@H]1O[C@@H](n2ccc(NC(=O)OCc3ccccc3)nc2=O)C(F)(F)[C@@H]1O [Compound D3, 1,5-di-[4-N-(benzyloxycarbonyl)-2′-deoxy-2′,2′-difluoro-cytidine]glutarate]
- Relative tumor proliferation rate, minimum [1, 3]: 3.41%
- Tumor inhibition rate, maximum [1, 3]: 98.54%
- Relative tumor proliferation rate (T/C %) ([1]; Day 0): 0.00%
- Relative tumor volume (RTV) ([1]; Day 0): 1.00
- Tumor growth inhibition rate (TGI %) ([1]; Day 0): 0.00%
- Tumor volume of HCT-116 human colon cancer xenografts ([1]; Day 0): 38.77 ± 4.33** mm^3
- Relative tumor proliferation rate (T/C %) ([1]; Day 1): 60.98%
- Relative tumor volume (RTV) ([1]; Day 1): 0.98 ± 0.12
- Tumor growth inhibition rate (TGI %) ([1]; Day 1): 79.83%
- Tumor volume of HCT-116 human colon cancer xenografts ([1]; Day 1): 36.40 ± 3.98** mm^3
- Relative tumor proliferation rate (T/C %) ([1]; Day 2): 49.58%
- Relative tumor volume (RTV) ([1]; Day 2): 0.98 ± 0.12
- Tumor growth inhibition rate (TGI %) ([1]; Day 2): 83.59%
- Tumor volume of HCT-116 human colon cancer xenografts ([1]; Day 2): 36.40 ± 3.98** mm^3
- Relative tumor proliferation rate (T/C %) ([1]; Day 4): 23.26%
- Relative tumor volume (RTV) ([1]; Day 4): 0.65 ± 0.10
- Tumor growth inhibition rate (TGI %) ([1]; Day 4): 92.26%
- Tumor volume of HCT-116 human colon cancer xenografts ([1]; Day 4): 23.00 ± 3.08** mm^3
- Relative tumor proliferation rate (T/C %) ([1]; Day 7): 6.76%
- Relative tumor volume (RTV) ([1]; Day 7): 0.34 ± 0.06
- Tumor growth inhibition rate (TGI %) ([1]; Day 7): 97.08%
- Tumor volume of HCT-116 human colon cancer xenografts ([1]; Day 7): 12.62 ± 3.10** mm^3
- Relative tumor proliferation rate (T/C %) ([1]; Day 9): 4.71%
- Relative tumor volume (RTV) ([1]; Day 9): 0.32 ± 0.05
- Tumor growth inhibition rate (TGI %) ([1]; Day 9): 97.86%
- Tumor volume of HCT-116 human colon cancer xenografts ([1]; Day 9): 12.62 ± 3.10** mm^3
- Relative tumor proliferation rate (T/C %) ([1]; Day 11): 3.41%
- Relative tumor volume (RTV) ([1]; Day 11): 0.37 ± 0.09
- Tumor growth inhibition rate (TGI %) ([1]; Day 11): 98.54%
- Tumor volume of HCT-116 human colon cancer xenografts ([1]; Day 11): 14.28 ± 3.69** mm^3
- Relative tumor proliferation rate (T/C %) ([1]; Day 14): 5.78%
- Relative tumor volume (RTV) ([1]; Day 14): 1.00 ± 0.00
- Tumor growth inhibition rate (TGI %) ([1]; Day 14): 97.43%
- Tumor volume of HCT-116 human colon cancer xenografts ([1]; Day 14): 36.98 ± 4.82** mm^3
- Relative tumor proliferation rate (T/C %) ([1]; Day 16): 10.49%
- Relative tumor volume (RTV) ([1]; Day 16): 2.17 ± 0.14
- Tumor growth inhibition rate (TGI %) ([1]; Day 16): 95.58%
- Tumor volume of HCT-116 human colon cancer xenografts ([1]; Day 16): 80.10 ± 11.07** mm^3
- Relative tumor proliferation rate (T/C %) ([1]; Day 18): 16.55%
- Relative tumor volume (RTV) ([1]; Day 18): 3.16 ± 0.39
- Tumor growth inhibition rate (TGI %) ([1]; Day 18): 93.97%
- Tumor volume of HCT-116 human colon cancer xenografts ([1]; Day 18): 120.40 ± 23.44** mm^3
- Relative tumor proliferation rate (T/C %) ([1]; Day 21): 23.70%
- Relative tumor volume (RTV) ([1]; Day 21): 5.55 ± 0.66
- Tumor growth inhibition rate (TGI %) ([1]; Day 21): 91.65%
- Tumor volume of HCT-116 human colon cancer xenografts ([1]; Day 21): 204.05 ± 36.25 mm^3
- Relative tumor proliferation rate (T/C %) ([1]; Day 23): 31.41%
- Relative tumor volume (RTV) ([1]; Day 23): 6.21 ± 0.61
- Tumor growth inhibition rate (TGI %) ([1]; Day 23): 90.30%
- Tumor volume of HCT-116 human colon cancer xenografts ([1]; Day 23): 229.06 ± 36.15 mm^3
- Relative tumor proliferation rate (T/C %) ([1]; Day 25): 33.40%
- Relative tumor volume (RTV) ([1]; Day 25): 7.22 ± 0.53
- Tumor growth inhibition rate (TGI %) ([1]; Day 25): 89.70%
- Tumor volume of HCT-116 human colon cancer xenografts ([1]; Day 25): 266.11 ± 39.63 mm^3
- Relative tumor proliferation rate (T/C %) ([1]; Day 28): 43.93%
- Relative tumor volume (RTV) ([1]; Day 28): 9.28 ± 0.73
- Tumor growth inhibition rate (TGI %) ([1]; Day 28): 87.09%
- Tumor volume of HCT-116 human colon cancer xenografts ([1]; Day 28): 347.17 ± 60.84 mm^3
- Relative tumor proliferation rate (T/C %) ([1]; Day 30): 52.09%
- Relative tumor volume (RTV) ([1]; Day 30): 12.93 ± 0.90
- Tumor growth inhibition rate (TGI %) ([1]; Day 30): 82.93%
- Tumor volume of HCT-116 human colon cancer xenografts ([1]; Day 30): 479.01 ± 75.54 mm^3
- Inhibition of growth of HCT-116 human colon cancer xenografts (in words) ([1]; single IP injection, 300-400 mg/kg): higher tumor inhibition rates
- Average rate of weight change of the animals ([2]; Day 0): 0.00%
- Average weight of the animals ([2]; Day 0): 19.95 ± 0.09 g
- Average rate of weight change of the animals ([2]; Day 1): −3.59 ± 0.66%
- Average weight of the animals ([2]; Day 1): 19.23 ± 0.31 g
- Average rate of weight change of the animals ([2]; Day 2): −11.25 ± 0.96 %
- Average weight of the animals ([2]; Day 2): 17.70 ± 0.26 g
- Average rate of weight change of the animals ([2]; Day 4): −8.10 ± 2.84%
- Average weight of the animals ([2]; Day 4): 18.24 ± 0.58 g
- Average rate of weight change of the animals ([2]; Day 7): −1.68 ± 2.50%
- Average weight of the animals ([2]; Day 7): 19.51 ± 0.48 g
- Average rate of weight change of the animals ([2]; Day 9): 4.50 ± 1.93 %
- Average weight of the animals ([2]; Day 9): 20.74 ± 0.38 g
- Average rate of weight change of the animals ([2]; Day 11): 6.38 ± 1.68 %
- Average weight of the animals ([2]; Day 11): 21.12 ± 0.41 g
- Average rate of weight change of the animals ([2]; Day 14): 7.12 ± 1.19 %
- Average weight of the animals ([2]; Day 14): 21.26 ± 0.21 g
- Average rate of weight change of the animals ([2]; Day 16): 10.78 ± 0.88 %
- Average weight of the animals ([2]; Day 16): 22.00 ± 0.40 g
- Average rate of weight change of the animals ([2]; Day 18): 13.71 ± 0.63 %
- Average weight of the animals ([2]; Day 18): 22.58 ± 0.38 g
- Average rate of weight change of the animals ([2]; Day 21): 10.72 ± 1.6 %
- Average weight of the animals ([2]; Day 21): 21.98 ± 0.41 g
- Average rate of weight change of the animals ([2]; Day 23): 13.08 ± 2.31 %
- Average weight of the animals ([2]; Day 23): 22.44 ± 0.41 g
- Average rate of weight change of the animals ([2]; Day 25): 13.34 ± 2.34 %
- Average weight of the animals ([2]; Day 25): 22.50 ± 0.53 g
- Average rate of weight change of the animals ([2]; Day 28): 11.44 ± 2.29 %
- Average weight of the animals ([2]; Day 28): 22.12 ± 0.48 g
- Average rate of weight change of the animals ([2]; Day 30): 15.37 ± 2.93%
- Average weight of the animals ([2]; Day 30): 22.90 ± 0.60 g
- Toxicity in tumor-bearing mice (in words) ([2]; single IP injection, D2 400 mg/kg, judged from body weight versus control): no toxicity
